From patent US11230533B2, “Crystalline salts and polymorphs of a P2X3 antagonist” (Afferent Pharmaceuticals, Inc., priority 2016, dated 2022)
In brackets after ≈: the same amount, converted by molar mass. Read-outs that look alike come from different tables or passages of the source.

Test: Approximate solubility by solvent addition
Assay type: physicochemical
Experimental: Solubilities are calculated based on the total solvent used to give a solution; actual solubilities may be greater because of the volume of the solvent portions used or a slow rate of dissolution. Values are rounded to the nearest whole number.
Solubilities are calculated based on the total solvent used to give a solution; actual solubilities may be greater because of the volume of the solvent portions used or a slow rate of dissolution. Values are rounded to the nearest whole number. […] If dissolution occurred as determined by the visual assessment after the addition of the first aliquot, the value is reported as “>”.

solubility (aqueous with cosolvent or surfactant or cyclodextrin, thermodynamic from solid, solvent acetone/water 50:50 (v/v), read-out: Solubility): < 1000 µg/mL
solubility (organic solvent or mixture, thermodynamic from solid, solvent ACN/water 90:10 (v/v), read-out: Solubility): 1000 µg/mL (≈ 2830 µM)
solubility (organic solvent or mixture, thermodynamic from solid, solvent ACN, read-out: Solubility): < 2000 µg/mL
solubility (organic solvent or mixture, thermodynamic from solid, solvent DMSO, read-out: Solubility): 20000 µg/mL (≈ 56600 µM)
solubility (organic solvent or mixture, thermodynamic from solid, solvent EtOAc, read-out: Solubility): < 1000 µg/mL
solubility (organic solvent or mixture, thermodynamic from solid, solvent EtOH, read-out: Solubility): < 1000 µg/mL
solubility (organic solvent or mixture, thermodynamic from solid, solvent MeOH, read-out: Solubility): 1000 µg/mL (≈ 2830 µM)
solubility (organic solvent or mixture, thermodynamic from solid, solvent TFE, read-out: Solubility): 2000 µg/mL (≈ 5660 µM)
solubility (organic solvent or mixture, thermodynamic from solid, solvent acetone, read-out: Solubility): < 1000 µg/mL
solubility (solvent water, ambient temperature): <1000 µg/mL
solubility (thermodynamic from solid, solvent water, ambient temperature, read-out: Solubility): < 1000 µg/mL
Compound: COc1cc(C(C)C)c(Oc2cnc(N)nc2N)cc1S(N)(=O)=O [Compound A Free Base Form A, 5-(2,4-diamino-pyrimidin-5-yloxy)-4-isopropyl-2-methoxy-benzenesulfonamide]
